This is an account of results in US10287259B2, “Selenazolidine and thiazolidine compounds for treating cancer and other diseases” (The Penn State Research Foundation, priority 2016, dated 2019).

SMILES strings stand for the structures.

Data set [1] concerns Panc-1 cells. The data set is described as follows: MTT cell viability assay, Panc-1. In kind it is cell-based. The conditions noted are these: for IC50: Homo sapiens. The procedure: (§1) MTT (3-(4,5-dimethylthiazol-2-yl)-2,5-diphenyltetrazolium) assay was performed to determine the effect of AS-10 on cancer cell viability (Plano et al., 2016, J. Med. Chem. 1946-1959; Alcolea et al., 2012, Eur. J. Med. Chem. 113:134-144; Kumar et al., 2014, Eur. J. Med. Chem. 81:267-276). Briefly, 3×10^3 cells were treated with different concentrations of AS-10 in triplicate in a 96-well plate for different time points. MTT solution (20 μL of 5.0 mg/mL solution) was added to each well, three hours prior to termination time point and incubated at 37° C. Resultant formazan crystals, at termination time point, were dissolved in 50 μL DMSO. The plate was subjected to a 96-well multiscanner (Dynex Technologies, MRX Revelation; Chantilly, Va., USA) for measuring the optical densities at 570 nm and 630 nm. IC50 values were determined by performing non-linear regression using Graphpad Prism software.
To test the anti-cancer activity of AS-10 in pancreatic cancer (PC) cell lines, a MTT assay was performed. PC cell lines, Panc-1 and BxPC3, were treated with AS-10 at different doses at different time points (24, 48, and 72 h). Resulting cells were subjected to MTT cell viability assay. […] Panc-1 cells were treated with different doses of AS-10 for 48 h. After 48 h, live cells were counted and plated in a new petri dish. Cells were allowed to form colonies for 17 days. At the end of 17 days the colonies were counted and compared to the untreated cells.
On the technique in general: Tetrazolium dyes change colour on reduction, which living cells bring about.

In data set [2] the test system is Mouse embryonic fibroblast cells (MEFs). Put plainly: cells. The format is cell-based. The procedure:
as §1
To determine that AS-10 was selectively toxic to cancer cells, the effect of AS-10 in normal Mouse embryonic fibroblast cells (MEFs) was tested using MTT assay. MEFs were treated with AS-10 for 48 h and the data was compared with Panc-1 cells, treated for 48 h. […] At the dose which yields 50 percent growth inhibition in PC cells, AS-10 had no effect on MEFs growth.

Data set [3] deals with Panc-1 cells. The data set is described as follows: Muse Live/dead Annexin V assay. In kind it is cell-based. Particulars: Panc-1, 48 h; AS-10 2.5 μM, gemcitabine 50 μM. The procedure:
Muse Annexin V & Dead Cell kit was used to determine the apoptosis cells in AS-10 treated Panc-1 cells (Plano et al., 2016, J. Med. Chem. 1946-1959). The Muse Annexin V & Dead cell assay contains Annexin V to detect phosphatidylserine (PS) on the outer surface of cells. The kit also contains a dead cell marker, 7-amino-actinomycin D (7-AAD). […] In brief, Panc-1 (1.5×10^5) cells were treated with a given dose of AS-10 or DMSO for appropriate time (0, 6, 12, 24, 36, or 48 h). Both floating cells as well as adherent cells were collected and subjected for Annexin V staining using Muse Annexin V & Dead Cell kit with Muse cell analyzer (EMD Millipore, Billerica, Mass., USA). The obtained data were analyzed using Muse 1.4 software.

For data set [4], the system named is LNCaP cells. Put plainly: MTT cell viability test, LNCaP. In kind it is cell-based. The conditions noted are these: Homo sapiens, time and concentration dependent, read-out: EC50, growth inhibition of LNCaP cells. The procedure:
as §1

Data set [5] concerns Panc-1 cells. The data set is described as follows: Colony formation assay. The format is cell-based. The conditions noted are these: 48 h treatment, colonies for 17 days. The procedure: Crystal violet staining method was utilized for performing colony formation assay (Franken et al., 2006, Nat. protoc. 1:2315-2319). In brief, Panc-1 cells were treated with vehicle control (DMSO). 2.5 μM or 10 μM of AS-10 for 48 h. After 48 h treatment period, cells were trypsinized and live cells were counted using tryphan blue dye exclusion assay. Tissue culture plates of size 60×15 mm were seeded with 100 live cells from vehicle treated and 5000 live cells from AS-10 treated cells. Cells were allowed to form colonies for 17 days in DMEM free from DMSO or AS-10 at 37° C. in a 5% CO2 chamber. After 17 days' colonies were stained with 0.5% alcoholic crystal violet. Percentage Plating efficiency (PE) was calculated by the formula: % PE=number of colonies*100/number of cells plated. Data plotted as % relative PE.

For data set [6], the system named is prostate cancer cells (LnCAP, PC-3 and DU-145). The data set is described as follows: Apoptosis in prostate cancer cells. In kind it is cell-based.
In data set [7] the test system is Panc-1 cells. The data set is described as follows: Muse caspase 3/7 activity assay. In kind it is cell-based. The conditions noted are these: Panc-1, 10 μM. On the procedure:
To evaluate the efficacy of AS-10 in inducing caspase 3, Panc-1 cells were treated with AS-10 at different concentrations for different time points. Caspase 3/7 activity was measured using Muse Caspase-3/7 Assay kit with Muse cell analyzer (EMD Millipore, Billercia, Mass. USA) according to manufacturer's protocol (Plano et al., 2016, J. Med. Chem. 1946-1959). In brief, the Muse Caspase 3/7 kit contains a reagent namely NucView for detection of activated caspase 3/7. The reagent is cell membrane permeable and contains a DNA binding dye that is linked to a DEVD peptide substrate. In presence of activated caspase 3/7, DEVD is cleaved and DNA binding dye is released. Therefore, cells with active caspase 3/7 activity will yield high fluorescence. (Ref Millipore, Catlog No. MCH100108). The kit also contains a dead cell marker, 7-AAD, for detection of cells with compromised cell membrane. Data from Muse cell analyzer were analyzed using Muse 1.4 software.

Data set [8] in a line: Maximum tolerated dose (MTD) / toxicology studies in mice.

With `CC(=O)Oc1ccccc1C(=O)/N=C1\[Se]CCN1C(=O)c1ccccc1OC(C)=O` [AS-10, 2-((3-(2-acetoxybenzoyl)-1,3-selenazolidin-2-ylidene)carbamoyl)phenyl acetate], the IC50 in data set [1] (PANC-1, 48 h) was 1000 to 2500 nM; in data set [1] (Panc-1, different time points (24, 48, 72 h)), 1000 to 5000 nM; in data set [2] (Mus musculus, Fibroblast, read-out: IC50, normal (Mouse Embryonic Fibroblasts) cells), > 50000 nM. In addition, the “potency relative to gemcitabine” value in data set [1] (Panc-1, 48 h) is recorded as > 500 times. In addition, the “effect on MEFs growth” value in data set [2] is listed as “no effect”. In data set [3], the total apoptotic cells was ~25%. In addition, the EC50 in data set [4] lay within 1700 to 2500 nM. Moreover, the “colonies formed compared to vehicle treated cells” value in data set [5] was “effectively decreased the amount of colonies formed”. In data set [6] (LNCaP), the “Annexin V staining, caspase 3/7 activity, and PARP cleavage” value is “increased”. In addition, the “apoptosis induction in prostate cancer cells” value in data set [6] (LnCAP, PC-3 and DU-145) is “effective at inducing apoptosis in all prostate cancer cells tested”. In data set [7], the “mode of cell death (caspase 3/7 activity, Annexin V)” value is “die in an apoptotic manner”. Moreover, the “necrosis (cells only positive for 7-ADD)” value in data set [7] is on record as “did not induce necrosis”. Further, in data set [8] (mouse, in vivo), the “safety margin, preliminary toxicology study in mice” value is “wide safety margin”. The “tolerability of AS-10 relative to Asp-SeCN (MTD)” value in data set [8] (nude mice) is reported as ~5 times. In data set [8] (nude, mouse, in vivo, ip), the MTD was ~80 mg/kg.

As usually defined, the IC50 is the concentration at which inhibition is half-maximal. A word on the EC50: it is the midpoint of the concentration-response curve. The MTD is the highest dose tested that stayed within the study's limit of toxicity.
